This note sets out measurements from ChEMBL document CHEMBL3991601, “The target landscape of clinical kinase drugs” (Science, 2017).

SMILES strings stand for the structures. Calls of active or inactive are those of the source. Where only a bound is given, the exact number is not on record here.

One test deals with Activin receptor type-2B (Homo sapiens, UniProt Q13705).
In test [1] the target is T1, Mitogen-activated protein kinase kinase kinase 5 (Homo sapiens, UniProt Q99683).
T1 sequence (Q99683 whole entry): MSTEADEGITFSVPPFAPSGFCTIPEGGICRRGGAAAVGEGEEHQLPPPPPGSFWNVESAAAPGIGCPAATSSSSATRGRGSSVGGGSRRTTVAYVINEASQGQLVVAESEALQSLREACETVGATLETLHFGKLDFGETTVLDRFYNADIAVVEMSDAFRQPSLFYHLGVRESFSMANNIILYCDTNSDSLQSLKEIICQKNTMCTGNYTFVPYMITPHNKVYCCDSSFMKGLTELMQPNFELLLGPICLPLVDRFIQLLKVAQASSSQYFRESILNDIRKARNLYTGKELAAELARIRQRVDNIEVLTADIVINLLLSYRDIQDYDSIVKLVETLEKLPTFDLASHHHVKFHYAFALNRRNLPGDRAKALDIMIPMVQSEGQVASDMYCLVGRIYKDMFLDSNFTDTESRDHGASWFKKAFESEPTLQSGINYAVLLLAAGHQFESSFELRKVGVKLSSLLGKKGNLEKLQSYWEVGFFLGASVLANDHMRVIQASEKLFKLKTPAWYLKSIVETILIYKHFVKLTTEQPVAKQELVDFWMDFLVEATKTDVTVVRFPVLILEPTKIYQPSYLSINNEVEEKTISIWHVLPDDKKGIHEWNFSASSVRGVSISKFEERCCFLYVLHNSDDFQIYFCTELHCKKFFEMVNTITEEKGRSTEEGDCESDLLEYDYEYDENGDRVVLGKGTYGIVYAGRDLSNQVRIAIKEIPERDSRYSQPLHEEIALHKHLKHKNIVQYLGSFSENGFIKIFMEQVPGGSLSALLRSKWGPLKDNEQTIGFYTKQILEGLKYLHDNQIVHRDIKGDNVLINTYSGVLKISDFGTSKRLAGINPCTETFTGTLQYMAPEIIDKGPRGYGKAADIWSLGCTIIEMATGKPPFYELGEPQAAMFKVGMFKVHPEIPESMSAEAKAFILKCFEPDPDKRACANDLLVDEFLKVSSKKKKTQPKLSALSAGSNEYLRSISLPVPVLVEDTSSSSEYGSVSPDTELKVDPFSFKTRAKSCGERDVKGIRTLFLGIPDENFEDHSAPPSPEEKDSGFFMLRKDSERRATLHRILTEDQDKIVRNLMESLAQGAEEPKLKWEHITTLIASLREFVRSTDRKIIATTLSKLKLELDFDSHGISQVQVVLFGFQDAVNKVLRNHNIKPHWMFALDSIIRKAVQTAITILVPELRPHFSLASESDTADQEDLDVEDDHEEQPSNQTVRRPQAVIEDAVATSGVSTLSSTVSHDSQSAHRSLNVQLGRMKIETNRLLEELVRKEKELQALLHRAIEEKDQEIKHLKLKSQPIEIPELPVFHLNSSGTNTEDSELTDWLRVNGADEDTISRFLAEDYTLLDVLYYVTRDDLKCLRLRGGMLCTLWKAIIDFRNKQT

For test [2], the target named is High affinity nerve growth factor receptor (Homo sapiens, UniProt P04629).
High affinity nerve growth factor receptor, sequence (P04629 whole entry): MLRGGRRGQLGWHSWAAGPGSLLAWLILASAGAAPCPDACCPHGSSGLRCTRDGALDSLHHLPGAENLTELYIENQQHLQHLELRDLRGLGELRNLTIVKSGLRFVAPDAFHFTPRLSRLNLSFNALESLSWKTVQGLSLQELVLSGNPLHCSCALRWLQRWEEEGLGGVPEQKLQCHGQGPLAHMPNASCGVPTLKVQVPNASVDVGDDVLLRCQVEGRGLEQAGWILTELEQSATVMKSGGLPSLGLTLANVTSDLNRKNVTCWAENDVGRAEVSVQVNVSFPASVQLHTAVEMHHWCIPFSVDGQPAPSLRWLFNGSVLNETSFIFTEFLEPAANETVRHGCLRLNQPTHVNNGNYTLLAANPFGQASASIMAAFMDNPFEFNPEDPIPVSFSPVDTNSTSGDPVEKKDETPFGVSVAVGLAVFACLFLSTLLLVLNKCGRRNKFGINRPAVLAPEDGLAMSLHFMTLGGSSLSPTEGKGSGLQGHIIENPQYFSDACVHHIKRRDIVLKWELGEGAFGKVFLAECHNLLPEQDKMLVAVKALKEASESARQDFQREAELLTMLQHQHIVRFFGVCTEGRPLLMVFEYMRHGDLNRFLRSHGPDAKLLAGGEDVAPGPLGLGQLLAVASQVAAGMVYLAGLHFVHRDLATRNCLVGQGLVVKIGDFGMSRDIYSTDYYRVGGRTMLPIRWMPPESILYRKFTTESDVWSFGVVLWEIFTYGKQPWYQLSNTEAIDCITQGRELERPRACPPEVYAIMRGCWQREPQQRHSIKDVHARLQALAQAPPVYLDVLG
In test [3] the target is T2, Bifunctional phosphoribosylaminoimidazole carboxylase/phosphoribosylaminoimidazole succinocarboxamide synthetase (Homo sapiens, UniProt P22234).
T2 sequence (P22234 whole entry): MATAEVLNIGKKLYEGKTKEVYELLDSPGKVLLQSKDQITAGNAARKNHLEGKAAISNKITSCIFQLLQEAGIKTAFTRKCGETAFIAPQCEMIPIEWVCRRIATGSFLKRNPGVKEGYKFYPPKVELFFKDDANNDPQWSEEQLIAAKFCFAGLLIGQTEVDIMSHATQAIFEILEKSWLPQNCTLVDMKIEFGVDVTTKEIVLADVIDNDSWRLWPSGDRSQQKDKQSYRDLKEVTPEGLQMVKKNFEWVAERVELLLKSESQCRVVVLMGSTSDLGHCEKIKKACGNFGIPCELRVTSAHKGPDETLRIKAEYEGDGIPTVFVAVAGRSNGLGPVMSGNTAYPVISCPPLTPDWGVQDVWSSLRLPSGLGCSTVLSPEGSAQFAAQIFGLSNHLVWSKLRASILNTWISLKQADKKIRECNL
Note: in the data inactive means no Kd found up to 30 µM.

Activin receptor type-2B, sequence (Q13705 whole entry): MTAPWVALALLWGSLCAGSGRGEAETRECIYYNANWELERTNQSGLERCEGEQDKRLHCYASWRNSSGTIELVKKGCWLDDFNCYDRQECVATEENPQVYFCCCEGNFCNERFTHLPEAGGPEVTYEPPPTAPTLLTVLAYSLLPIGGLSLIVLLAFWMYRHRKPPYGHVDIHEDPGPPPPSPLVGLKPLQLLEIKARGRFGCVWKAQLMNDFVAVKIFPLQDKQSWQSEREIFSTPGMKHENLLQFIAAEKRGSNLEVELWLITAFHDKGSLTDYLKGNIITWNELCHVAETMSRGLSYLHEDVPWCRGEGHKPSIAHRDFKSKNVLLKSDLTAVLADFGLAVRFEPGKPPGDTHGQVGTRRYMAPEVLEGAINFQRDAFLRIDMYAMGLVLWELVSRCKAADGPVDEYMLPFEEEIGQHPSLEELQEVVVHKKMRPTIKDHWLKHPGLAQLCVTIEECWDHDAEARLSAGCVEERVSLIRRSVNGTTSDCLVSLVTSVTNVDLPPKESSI

Turning to `Cn1cc(-c2cnn3c(N)c(Br)c([C@@H]4CCCNC4)nc23)cn1` [SCH-900776], the Kd (at Activin receptor type-2B; in test [1]; in test [2]; in test [3]) was > 30 µM (inactive) in each case.
Turning to `CO[C@H]1C[C@@H]2CC[C@@H](C)[C@@](O)(O2)C(=O)C(=O)N2CCCC[C@H]2C(=O)O[C@H]([C@H](C)C[C@@H]2CC[C@@H](O)[C@H](OC)C2)CC(=O)[C@H](C)/C=C(\C)[C@@H](O)[C@@H](OC)C(=O)[C@H](C)C[C@H](C)/C=C/C=C/C=C/1C` [SIROLIMUS], the Kd (on Activin receptor type-2B; in test [1]; in test [2]; in test [3]) was > 30 µM (inactive) in each case.
Turning to `CCS(=O)(=O)c1cccc(-c2cc(C(=O)NC3CCN(C)CC3)c(C)c3[nH]c4ncc(C)cc4c23)c1` [TAK-901], the Kd was > 30 µM (inactive) at Activin receptor type-2B, > 30 µM (inactive) in test [1], 0.843 µM (active) in test [2] and > 30 µM (inactive) in test [3].
As for `CO[C@H]1C[C@@H]2CC[C@@H](C)[C@@](O)(O2)C(=O)C(=O)N2CCCC[C@H]2C(=O)O[C@H]([C@H](C)C[C@@H]2CC[C@@H](OC(=O)C(C)(CO)CO)[C@H](OC)C2)CC(=O)[C@H](C)/C=C(\C)[C@@H](O)[C@@H](OC)C(=O)[C@H](C)C[C@H](C)/C=C/C=C/C=C/1C` [TEMSIROLIMUS], the Kd (on Activin receptor type-2B; in test [1]; in test [2]; in test [3]) was > 30 µM (inactive) in each case.
In the case of `COc1cc2c(Nc3ccc(Cl)c(Cl)c3F)ncnc2cc1OC[C@@H]1C[C@@H]2CN(C)C[C@@H]2C1` [TESEVATINIB], the Kd (on Activin receptor type-2B; in test [1]; in test [2]; in test [3]) was > 30 µM (inactive) throughout.
`O=C(Cc1ccc(-c2ccc(OCCN3CCOCC3)cc2)cn1)NCc1ccccc1` [TIRBANIBULIN]: the Kd (at Activin receptor type-2B; in test [1]; in test [2]; in test [3]) was > 30 µM (inactive) throughout.
`O=C1NC(=O)[C@@H](c2cn3c4c(cccc24)CCC3)[C@@H]1c1c[nH]c2ccccc12` [TIVANTINIB]: the Kd (on Activin receptor type-2B; in test [1]; in test [2]; in test [3]) was > 30 µM (inactive) each time.
For the compound `C[C@@H](NC(=O)c1ncnc(N)c1Cl)c1ncc(C(=O)Nc2cc(C(F)(F)F)c(Cl)cn2)s1` [TOVORAFENIB], the Kd (on Activin receptor type-2B; in test [1]; in test [2]; in test [3]) was > 30 µM (inactive) in each case.
With `Cc1cc(Nc2ncnc3ccc(NC4=NC(C)(C)CO4)cc23)ccc1Oc1ccn2ncnc2c1` [TUCATINIB], the Kd (on Activin receptor type-2B; in test [1]; in test [2]; in test [3]) was > 30 µM (inactive) each time.
Turning to `Cn1ncc(Cl)c1-c1cc(C(=O)N[C@H](CN)Cc2ccc(F)c(F)c2)oc1Cl` [UPROSERTIB], the Kd (on Activin receptor type-2B; in test [1]; in test [2]; in test [3]) was > 30 µM (inactive) in each case.
For `CC(C)c1cc(CNc2nc(Nc3cc(C4CC4)[nH]n3)cc(N3CCN(C)CC3)n2)on1` [XL-228], the Kd on Activin receptor type-2B was > 30 µM (inactive); in test [1], > 30 µM (inactive); in test [2], 0.006 µM (active); in test [3] it was > 30 µM (inactive).
Turning to `C[C@@H](N)c1ccc(C(=O)Nc2ccnc3[nH]ccc23)cc1` [Y-39983], the Kd at Activin receptor type-2B was > 30 µM (inactive); in test [1], 50.5 µM (active); in test [2], > 30 µM (inactive); in test [3] it was > 30 µM (inactive).

By Kd is commonly meant the concentration at which binding is half-saturated.
